SMILES strings stand for the structures.

The target in assay [1] is T1, Muscarinic acetylcholine receptor M2 (Rattus norvegicus, UniProt P10980).
T1 sequence (P10980 whole entry): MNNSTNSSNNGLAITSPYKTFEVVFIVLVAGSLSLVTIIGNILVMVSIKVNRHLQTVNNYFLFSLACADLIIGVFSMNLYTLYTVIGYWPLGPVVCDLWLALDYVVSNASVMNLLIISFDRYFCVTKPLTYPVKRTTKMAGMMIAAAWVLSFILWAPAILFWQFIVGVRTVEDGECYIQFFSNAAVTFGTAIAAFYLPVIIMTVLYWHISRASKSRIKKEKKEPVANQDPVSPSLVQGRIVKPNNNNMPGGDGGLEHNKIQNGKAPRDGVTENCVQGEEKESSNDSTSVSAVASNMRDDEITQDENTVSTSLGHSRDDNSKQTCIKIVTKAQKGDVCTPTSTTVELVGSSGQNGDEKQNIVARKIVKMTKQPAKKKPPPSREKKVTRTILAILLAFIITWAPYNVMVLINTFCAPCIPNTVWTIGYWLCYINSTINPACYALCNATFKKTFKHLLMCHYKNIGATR
The experiment in a line: Displacement of [3H](-)-quinuclidinyl benzilate(QNB) from muscarinic (M2) receptor in rat heart homogenates. The format is tissue-based.

The target in assay [2] is T2, Muscarinic acetylcholine receptor M1 (Rattus norvegicus, UniProt P08482).
T2 sequence (P08482 whole entry): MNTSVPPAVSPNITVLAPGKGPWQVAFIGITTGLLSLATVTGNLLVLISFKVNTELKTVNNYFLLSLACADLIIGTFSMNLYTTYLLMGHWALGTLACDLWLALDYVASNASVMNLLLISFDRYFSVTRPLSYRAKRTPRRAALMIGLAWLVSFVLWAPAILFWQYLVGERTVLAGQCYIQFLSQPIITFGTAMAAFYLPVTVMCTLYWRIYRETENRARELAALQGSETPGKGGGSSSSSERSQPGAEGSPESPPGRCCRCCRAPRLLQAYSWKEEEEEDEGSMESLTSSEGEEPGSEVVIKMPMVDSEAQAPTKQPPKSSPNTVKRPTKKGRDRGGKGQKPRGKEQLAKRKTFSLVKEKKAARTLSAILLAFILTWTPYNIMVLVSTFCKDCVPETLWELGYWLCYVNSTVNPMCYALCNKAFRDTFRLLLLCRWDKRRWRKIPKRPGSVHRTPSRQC
Further details: species or system Cortex.

As for `CCN(CC)CCOC(=O)C1(c2ccc(N)cc2)CCCC1`, the values for the inhibitory constant (Ki) in assay [1] and in assay [2] were 116 nM and 20 nM, respectively. `CCN(CC)CCOC(=O)C1(C2CCCCC2)CCCCC1` [DICYCLOMINE] came in with an inhibition constant Ki in assay [1] of 47.3 nM.

Turning to `CCN(CC)CCOC(=O)C1(c2ccc(N3CCCC3)cc2)CCCC1`, the Ki came to 551 nM in assay [1] and 151 nM in assay [2]. As to `CCN(CC)CCOC(=O)C1(c2ccc([N+](=O)[O-])cc2)CCCC1`, the Ki in assay [1] worked out at 390 nM; in assay [2] it was 5.52 nM. As to `CCN(CC)CCOC(=O)C1(c2ccc(C#N)cc2)CCCC1`, the results for the Ki in assay [1] and in assay [2] were 213 nM and 8.12 nM, respectively. Turning to `CCN(CC)CCOC(=O)C1(c2ccccc2)CCCC1`, the inhibitory constant (Ki) in assay [1] was determined as 31.7 nM; in assay [2], 1.21 nM. For `CCN(CC)CCOC(=O)C1(c2ccc(-n3cnnn3)cc2)CCCC1`, the inhibition constant Ki in assay [1] was 432 nM; in assay [2], 14.5 nM.

In the case of `CCN(CC)CCOC(=O)C1(c2ccc(I)cc2)CCCC1`, the Ki in assay [1] came out at 123 nM; in assay [2] it was 2.11 nM.

Source of the values: ChEMBL document CHEMBL1125764, “Muscarinic receptor binding profile of para-substituted caramiphen analogues” (J Med Chem, 1991).
